# Test results: patent US20140135221A1, “Desiccant and Defoliant Composition for Crops” (NIHON NOHYAKU CO., LTD, priority 2011, published 2014)
# Tested on: seed potatoes (variety: danshaku)
# Assay: Desiccation and defoliation effect on potted potato plants in greenhouse (Test Example 1)
# Assay type: in vivo
# Settings: potato foliage; for desiccation and defoliation effect, 4 DAT: 4 days after treatment; for desiccation and defoliation effect, 7 DAT: 7 days after treatment; for desiccation and defoliation effect, 10 DAT: 10 days after treatment; for desiccation and defoliation effect, 16 DAT: 16 days after treatment
# Experimental: In 5100-ml plastic pots filled up with soil (clay loam), seed potatoes (variety: danshaku) were planted and cultivated in a greenhouse. When the foliage was fully developed, specifically, at 30 days after flowering, the test plants were treated with the predetermined effective dosage (expressed as the amounts of active ingredients in g/ha) of the composition of the present invention in a liquid form, and further cultivated in the greenhouse. In the period from 4 days to 16 days after the treatment, the desiccation effect was surveyed and the herbicidal effect was evaluated according to the criterion described below.
# Regarding the criterion for evaluating the desiccation and defoliation effect, the extent of desiccation and defoliation was graded from 0% (no effect) to 100% (completely desiccated).
SMILES,"desiccation and defoliation effect, 4 DAT (dosage 10 g.a.i./ha)","desiccation and defoliation effect, 7 DAT (dosage 10 g.a.i./ha)","desiccation and defoliation effect, 10 DAT (dosage 10 g.a.i./ha)","desiccation and defoliation effect, 16 DAT (dosage 10 g.a.i./ha)","desiccation and defoliation effect, 4 DAT (dosage 20 g.a.i./ha)","desiccation and defoliation effect, 7 DAT (dosage 20 g.a.i./ha)","desiccation and defoliation effect, 10 DAT (dosage 20 g.a.i./ha)","desiccation and defoliation effect, 16 DAT (dosage 20 g.a.i./ha)","desiccation and defoliation effect, 4 DAT (dosage 32 g.a.i./ha)","desiccation and defoliation effect, 7 DAT (dosage 32 g.a.i./ha)","desiccation and defoliation effect, 10 DAT (dosage 32 g.a.i./ha)","desiccation and defoliation effect, 16 DAT (dosage 32 g.a.i./ha)","desiccation and defoliation effect, 4 DAT (dosage 64 g.a.i./ha)","desiccation and defoliation effect, 7 DAT (dosage 64 g.a.i./ha)","desiccation and defoliation effect, 10 DAT (dosage 64 g.a.i./ha)","desiccation and defoliation effect, 16 DAT (dosage 64 g.a.i./ha)"
CCOC(=O)COc1cc(-c2nn(C)c(OC(F)F)c2Cl)c(F)cc1Cl [Pyraflufen-ethyl],38%,42%,45%,58%,48%,50%,55%,68%,–,–,–,–,–,–,–,–
Cc1nn(-c2cc(CC(Cl)C(=O)O)c(Cl)cc2F)c(=O)n1C(F)F (stereo not shown) [Carfentrazone],–,–,–,–,–,–,–,–,18%,22%,33%,40%,45%,52%,58%,70%
